From US20090061515A1, “Methods of inhibiting or suppressing cellular proliferation” (priority 2007, published 2009)

These compounds were tested on Human Coronary Artery Endothelial Cells (HCAEC) (assay: CyQuant cell number / proliferation, HCAEC (Example 7)). Settings: 1 mg/ml, after 96 hours post agent treatment, not following 24 hours exposure only.
Assay type: cell-based
Procedure: Cells were exposed to the test compounds for 24 to 48 hours and then allowed to grow for 96 hours in regular media (without test compound). The final concentrations for cell treatment were as follows: compounds 13358-18-1, 13358-18-2, 13358-18-4, and 13358-18-6 were evaluated at 10 mg/ml, 1 mg/ml, 100 micrograms/ml, and 10 micrograms/ml. Compounds 13358-18-3 and 13358-18-5 were evaluated at 50 mg/ml, 10 mg/ml, 1 mg/ml, and 100 micrograms/ml.
Three assays were used to look at the proliferation, viability and cytotoxicity of the compounds on the cells. A non-radioactive cytotoxicity assay available under the trade designation CytoTox 96 from Promega Corporation (Madison, Wis.) is designed to determine the cytotoxicity of a substance by quantitatively measuring the presence of lactate dehydrogenase (LDH) in cell culture supernatant. LDH is released in cells that are undergoing cell death and the assay converts it to a red formazan product that can allows for the proportional amount of LDH absorbance to be read. A cell proliferation assay available under the trade designation CyQuant from Invitrogen Corporation (Carlsbad, Calif.) determines the density of cells in culture by eluding a green fluorescent dye which fluoresces when bound to cellular nucleic acids. The amount of nucleic acid present is proportional to the amount of living cells in culture, therefore an accurate cell count can be obtained. A luminescent cell viability assay available under the trade designation CellTiter-Glo from Promega Corporation (Madison, Wis.) uses the amount ATP present in the cell cytoplasm as an indicator for metabolic activity. The amount of ATP present is proportional to the measured amount of a luminescent signal. This assay was used to confirm if the cells are still viable after exposure to the test compounds.

| Structure (SMILES) | cell number and viability |
| --- | --- |
| CC(=O)OCC(O)CO (stereo not drawn) [Compound 13358-18-5, 2,3-dihydroxy-propyl acetate] | some antiproliferative effect with viable cells |
| O=C1CCCCC1CC(O)CO (stereo not drawn) [Compound 13358-18-4, 2-(2′,3′-dihydroxypropyl)-cyclohexanone] | some antiproliferative effect with viable cells |
| CC(=O)CCC(O)C(O)c1ccccc1 (stereo not drawn) [Compound 13358-18-1, 5,6-dihydroxy-6-phenyl-hexan-2-one] | some antiproliferative effect with viable cells |
